Assay results from patent US20100216889A1, “PROLONGED EFFECT DISINFECTANT CLEANSER” (THE TRUSTEES OF COLUMBIA UNIVERSITY IN THE CITY OF, priority 2007, published 2010).

Tested on: S. aureus
Assay: Antiseptics and combinations in soap base C, mixed one minute with S. aureus
Assay type: cell-based
Details: antiseptics in soap base C; for Colony counts: 0.1 ml of 10^8 cfu/ml S. aureus mixed for one minute; for Log10 reduction from Control: S. aureus, one minute, control = soap base
Procedure: To 0.9 ml of the base, 0.1 ml of 10^8 cfu/ml of S. aureus was added and mixed for one minute, after which 9.0 ml of drug inactivating media was added. The samples were mixed well and serial dilutions were made with drug inactivating media. Various dilutions were plated on TSA plates. As the control, […] of soap base was used.

Row | Compound | Colony counts | Log10 reduction from Control
1 | Oc1cc(Cl)ccc1Oc1ccc(Cl)cc1Cl [0.5% TC, Triclosan] | 4.3 × 10^6 | 0.89
2 | CC(C)(C)CC(C)(C)c1ccc(OCCOCC[N+](C)(C)Cc2ccccc2)cc1.[Cl-] [0.18% BZT, Benzathonium chloride] | 3.9 × 10^6 | 0.94
3 | Polyhexamethylene biguanide [0.3% PHMB] | 2.0 × 10^6 | 1.17
4 | N=C(NCCCCCCNC(=N)NC(=N)Nc1ccc(Cl)cc1)NC(=N)Nc1ccc(Cl)cc1.O=C(O)[C@H](O)[C@@H](O)[C@H](O)[C@H](O)CO.O=C(O)[C@H](O)[C@@H](O)[C@H](O)[C@H](O)CO [0.2% CHG, Chlorhexidine gluconate] | 4.1 × 10^6 | 0.92
